According to ChEMBL document CHEMBL1156251, “Structure--activity relationships of polymyxin antibiotics” (J Med Chem, 2010):
In brackets after ≈: the same amount, converted by molar mass. Where a SMILES comes first, the peptide text is derived from it. Bridges are numbered along the chain shown (N, C = ends). [ ]: non-standard residue; d: D form. The star is where a group is joined. Heptanoyl(6-Me) = CC(C)CCCCC(=O)*; Octanoyl(6-Me) = CCC(C)CCCCC(=O)*; Dab = NCC[C@H](N)C(=O)O; Ava = NCCCCC(=O)O

Columns and labels:
Escherichia coli = assay: Antimicrobial activity against Escherichia coli; assay type: functional
Salmonella enterica = assay: Antimicrobial activity against Salmonella enterica; assay type: functional
Pseudomonas aeruginosa = assay: Antimicrobial activity against Pseudomonas aeruginosa; assay type: functional, organism-based

MIC (Escherichia coli)	IC50 (Pseudomonas aeruginosa) [µg/mL]	Molecule	also measured
1 µM		CCCCCCCC(=O)N[C@H](C(=O)N[C@@H](CCN)C(=O)N[C@H]1CCNC(=O)[C@H]([C@@H](C)O)NC(=O)[C@H](CCN)NC(=O)[C@H](CCN)NC(=O)[C@H](CC(C)C)NC(=O)[C@@H](CC(C)C)NC(=O)[C@H](CCN)NC1=O)[C@@H](C)O [Octanoyl colistin nonapeptide]	MIC (Salmonella enterica): 4 µM (≈ 4.22 µg/mL); MIC (Pseudomonas aeruginosa): 2 µM (≈ 2.11 µg/mL)
	70 (≈ 58.4 µM)	CCC(C)CCCCC(=O)N[C@@H](CC=O)C(=O)N[C@H](C(=O)N[C@@H](CC=O)C(=O)N[C@H]1CCNC(=O)[C@H]([C@@H](C)O)NC(=O)[C@H](CC=O)NC(=O)[C@H](CC=O)NC(=O)[C@H](CC(C)C)NC(=O)[C@@H](Cc2ccccc2)NC(=O)[C@H](CC=O)NC1=O)[C@@H](C)O (some centres undefined) [Desamino Polymyxin B]	
11 µg/mL		CCCCC(=O)N[C@@H](CCN)C(=O)N[C@@H](C(=O)N[C@@H](CCN)C(=O)N[C@H]1CCNC(=O)[C@@H]([C@@H](C)O)NC(=O)[C@H](CCN)NC(=O)[C@H](CCN)NC(=O)[C@H](CC(C)C)NC(=O)[C@@H](Cc2ccccc2)NC(=O)[C@H](CCN)NC1=O)[C@@H](C)O	
	73 (≈ 39.1 µM)	CCC(C)CCCCC(=O)N[C@@H](CCNc1ccc([N+](=O)[O-])cc1[N+](=O)[O-])C(=O)N[C@@H](C(=O)N[C@@H](CCNc1ccc([N+](=O)[O-])cc1[N+](=O)[O-])C(=O)N[C@H]1CCNC(=O)[C@@H]([C@@H](C)O)NC(=O)[C@H](CCNc2ccc([N+](=O)[O-])cc2[N+](=O)[O-])NC(=O)[C@H](CCNc2ccc([N+](=O)[O-])cc2[N+](=O)[O-])NC(=O)[C@H](CC(C)C)NC(=O)[C@@H](Cc2ccccc2)NC(=O)[C@H](CCN)NC1=O)[C@@H](C)O (some centres undefined) [2,4-DINITROPHENYL POLYMYXIN B]	
	10.2 (≈ 5.74 µM)	CCC(C)CCCCC(=O)N[C@@H](CCNC(=O)n1ccc2ccccc21)C(=O)N[C@@H](C(=O)N[C@@H](CCNC(=O)n1ccc2ccccc21)C(=O)N[C@H]1CCNC(=O)[C@@H]([C@@H](C)O)NC(=O)[C@H](CCNC(=O)n2ccc3ccccc32)NC(=O)[C@H](CCNC(=O)n2ccc3ccccc32)NC(=O)[C@H](CC(C)C)NC(=O)[C@@H](Cc2ccccc2)NC(=O)[C@H](CCN)NC1=O)[C@@H](C)O (some centres undefined) [TETRA INDOLE ALDEHYDE POLYMYXIN B]	
0.4 µg/mL		CCC(C)CCCCC(=O)N[C@@H](CCN)C(=O)N[C@H](C(=O)N[C@@H](CCN)C(=O)N[C@H]1CCNC(=O)[C@H]([C@@H](C)O)NC(=O)[C@H](CCN)NC(=O)[C@H](CCN)NC(=O)[C@H]([C@@H](C)CC)NC(=O)[C@@H](CC(C)C)NC(=O)[C@H](CCN)NC1=O)[C@@H](C)O (some centres undefined)	
	60 (≈ 44.7 µM)	CCC(C)CCCCC(=O)N[C@@H](CCNC=O)C(=O)N[C@H](C(=O)N[C@@H](CCNC=O)C(=O)N[C@H]1CCNC(=O)[C@H]([C@@H](C)O)NC(=O)[C@H](CCNC=O)NC(=O)[C@H](CCNC=O)NC(=O)[C@H](CC(C)C)NC(=O)[C@@H](Cc2ccccc2)NC(=O)[C@H](CCNC=O)NC1=O)[C@@H](C)O (some centres undefined)	
23 µg/mL		CCCC(=O)N[C@@H](CCN)C(=O)N[C@@H](C(=O)N[C@@H](CCN)C(=O)N[C@H]1CCNC(=O)[C@@H]([C@@H](C)O)NC(=O)[C@H](CCN)NC(=O)[C@H](CCN)NC(=O)[C@H](CC(C)C)NC(=O)[C@@H](Cc2ccccc2)NC(=O)[C@H](CCN)NC1=O)[C@@H](C)O [BUTANOYL FATTY ACYL POLYMYXIN B]	
	10.7 (≈ 5.03 µM)	CCC(C)CCCCC(=O)N[C@@H](CCNCc1c(COP(=O)(O)O)cnc(C)c1O)C(=O)N[C@@H](C(=O)N[C@@H](CCNCc1c(COP(=O)(O)O)cnc(C)c1O)C(=O)N[C@H]1CCNC(=O)[C@@H]([C@@H](C)O)NC(=O)[C@H](CCNCc2c(COP(=O)(O)O)cnc(C)c2O)NC(=O)[C@H](CCNCc2c(COP(=O)(O)O)cnc(C)c2O)NC(=O)[C@H](CC(C)C)NC(=O)[C@@H](Cc2ccccc2)NC(=O)[C@H](CCN)NC1=O)[C@@H](C)O (some centres undefined) [PYRIDOXAL POLYMYXIN B]	
	7.6 (≈ 6.17 µM)	CCC(C)CCCCC(=O)N[C@@H](CCNC=O)C(=O)N[C@H](C(=O)N[C@@H](CCN)C(=O)N[C@H]1CCNC(=O)[C@H]([C@@H](C)O)NC(=O)[C@H](CCN)NC(=O)[C@H](CCN)NC(=O)[C@H](CC(C)C)NC(=O)[C@@H](Cc2ccccc2)NC(=O)[C@H](CCN)NC1=O)[C@@H](C)O (some centres undefined)	
100 µg/mL		CCC(C)CCCCCOC(=O)[C@H](CCCCN)NC(=O)C(NC(=O)[C@H](CCCCN)NC(=O)[C@H](CCCCN)NC(=O)[C@@H](NC(=O)[C@H](CCCCN)NC(=O)[C@@H](CCCCN)NC(=O)[C@H](CC(C)C)NC(=O)[C@@H](CCCCN)NC(=O)[C@@H](N)CC(C)C)[C@@H](C)O)[C@@H](C)O (single isomer, unassigned)	
	80 (≈ 58.2 µM)	CCC(C)CCCCC(=O)N[C@@H](CCNC(N)=O)C(=O)N[C@H](C(=O)N[C@@H](CCNC(N)=O)C(=O)N[C@H]1CCNC(=O)[C@H]([C@@H](C)O)NC(=O)[C@H](CCNC(N)=O)NC(=O)[C@H](CCNC(N)=O)NC(=O)[C@H](CC(C)C)NC(=O)[C@@H](Cc2ccccc2)NC(=O)[C@H](CCN)NC1=O)[C@@H](C)O (some centres undefined)	
0.7 µg/mL		CCCCCC(=O)N[C@@H](CCN)C(=O)N[C@@H](C(=O)N[C@@H](CCN)C(=O)N[C@H]1CCNC(=O)[C@@H]([C@@H](C)O)NC(=O)[C@H](CCN)NC(=O)[C@H](CCN)NC(=O)[C@H](CC(C)C)NC(=O)[C@@H](Cc2ccccc2)NC(=O)[C@H](CCN)NC1=O)[C@@H](C)O [HEXANOYL FATTY ACYL POLYMYXIN B]	
	6.1 (≈ 4.74 µM)	CCC(C)CCCCC(=O)N[C@@H](CCNC=O)C(=O)N[C@H](C(=O)N[C@@H](CCNC=O)C(=O)N[C@H]1CCNC(=O)[C@H]([C@@H](C)O)NC(=O)[C@H](CCN)NC(=O)[C@H](CCNC=O)NC(=O)[C@H](CC(C)C)NC(=O)[C@@H](Cc2ccccc2)NC(=O)[C@H](CCN)NC1=O)[C@@H](C)O (some centres undefined)	
	4.2 (≈ 3.33 µM)	CCC(C)CCCCC(=O)N[C@@H](CCNC=O)C(=O)N[C@H](C(=O)N[C@@H](CCNC=O)C(=O)N[C@H]1CCNC(=O)[C@H]([C@@H](C)O)NC(=O)[C@H](CCN)NC(=O)[C@H](CCN)NC(=O)[C@H](CC(C)C)NC(=O)[C@@H](Cc2ccccc2)NC(=O)[C@H](CCN)NC1=O)[C@@H](C)O (some centres undefined)	

Second part, the molecule before the results:

Molecule	MIC (Escherichia coli)	IC50 (Pseudomonas aeruginosa) [µg/mL]	also measured
CC(C)C[C@@H]1NC(=O)[C@@H](CC(C)C)NC(=O)[C@H](CCN)NC(=O)[C@@H](NC(=O)[C@H](CCN)NC(=O)[C@@H](NC(=O)[C@H](CCN)NC(=O)CCCc2cc3ccc4cccc5ccc(c2)c3c45)[C@@H](C)O)CCNC(=O)[C@H]([C@@H](C)O)NC(=O)[C@H](CCN)NC(=O)[C@H](CCN)NC1=O	2 µM		MIC (Salmonella enterica): 2 µM (≈ 2.6 µg/mL); MIC (Pseudomonas aeruginosa): 1 µM (≈ 1.3 µg/mL)
CC(C)C[C@@H]1NC(=O)[C@@H](Cc2ccccc2)NC(=O)[C@H](CCN)NC(=O)[C@@H](NC(=O)[C@H](CCN)NC(=O)[C@@H](NC(=O)[C@H](CCN)NC(=O)Cc2ccc(-c3ccccc3)cc2)[C@@H](C)O)CCNC(=O)[C@H]([C@@H](C)O)NC(=O)[C@H](CCN)NC(=O)[C@H](CCN)NC1=O [4-BIPHENYL ACETIC ACID POLYMIXIN B]	0.5 µM		MIC (Salmonella enterica): 1 µM (≈ 1.26 µg/mL); MIC (Pseudomonas aeruginosa): 1 µM (≈ 1.26 µg/mL)
CC(C)C[C@@H]1NC(=O)[C@@H](Cc2ccccc2)NC(=O)[C@H](CCN)NC(=O)[C@@H](NC(=O)[C@H](CCN)NC(=O)[C@@H](NC(=O)[C@H](CCN)NC(=O)CCCc2cc3ccc4cccc5ccc(c2)c3c45)[C@@H](C)O)CCNC(=O)[C@H]([C@@H](C)O)NC(=O)[C@H](CCN)NC(=O)[C@H](CCN)NC1=O	2 µM		MIC (Salmonella enterica): 2 µM (≈ 2.67 µg/mL); MIC (Pseudomonas aeruginosa): 2 µM (≈ 2.67 µg/mL)
CCC(C)CCCCCOC(=O)[C@H](CCCCN)NC(=O)C(NC(=O)[C@H](CCCCN)NC(=O)[C@H](CCCCN)NC(=O)[C@@H](NC(=O)[C@H](CCCCN)NC(=O)[C@@H](CCCCN)NC(=O)[C@@H](N)CC(C)C)[C@@H](C)O)[C@@H](C)O (single isomer, unassigned)	50 µg/mL		
CCC(C)CCCCC(=O)N[C@@H](CCN)C(=O)N[C@H](C(=O)N[C@@H](CCN)C(=O)N[C@H]1CCNC(=O)[C@H]([C@@H](C)O)NC(=O)[C@H](CCN)NC(=O)[C@H](CCN)NC(=O)CCCCNC(=O)[C@H](CCN)NC1=O)[C@@H](C)O (some centres undefined) ({Octanoyl(6-Me)}-[Dab]T[Dab][Dab][Dab][Ava][Dab][Dab]T; lactam 4-C)	500 µg/mL		
CC(C)CCCCC(=O)N[C@@H](CCN)C(=O)N[C@H](C(=O)N[C@@H](CCN)C(=O)N[C@H]1CCNC(=O)[C@H]([C@@H](C)O)NC(=O)[C@H](CCN)NC(=O)[C@H](CCN)NC(=O)[C@H](CC(C)C)NC(=O)[C@@H](CC(C)C)NC(=O)[C@H](CCN)NC1=O)[C@@H](C)O [COLISTIN B] ({Heptanoyl(6-Me)}-[Dab]T[Dab][Dab][Dab][dL]L[Dab][Dab]T; lactam 4-C)	1.6 µg/mL		
CCC(C)CCCCC(=O)N[C@@H](CCNc1cc(N)c([N+](=O)[O-])cc1[N+](=O)[O-])C(=O)N[C@@H](C(=O)N[C@@H](CCNc1cc(N)c([N+](=O)[O-])cc1[N+](=O)[O-])C(=O)N[C@H]1CCNC(=O)[C@@H]([C@@H](C)O)NC(=O)[C@H](CCNc2cc(N)c([N+](=O)[O-])cc2[N+](=O)[O-])NC(=O)[C@H](CCNc2cc(N)c([N+](=O)[O-])cc2[N+](=O)[O-])NC(=O)[C@H](CC(C)C)NC(=O)[C@@H](Cc2ccccc2)NC(=O)[C@H](CCN)NC1=O)[C@@H](C)O (some centres undefined) [TETRA 5-AMINO-2,4-DINITROPHENYL POLYMYXIN B]		68 (≈ 35.3 µM)	
CCC(C)CCCCC(=O)N[C@@H](CCN)C(=O)N[C@H](C(=O)N[C@@H](CO)C(=O)N[C@H]1CCNC(=O)[C@H]([C@@H](C)O)NC(=O)[C@H](CCN)NC(=O)[C@H](CCN)NC(=O)[C@H](CC(C)C)NC(=O)[C@@H](CC(C)C)NC(=O)[C@H](CCN)NC1=O)[C@@H](C)O (some centres undefined)	0.8 µg/mL		
CCC(C)CCCCC(=O)N[C@@H](CCCCN)C(=O)N[C@H](C(=O)N[C@@H](CCCCN)C(=O)N[C@H]1CCNC(=O)[C@H]([C@@H](C)O)NC(=O)[C@H](CCCCN)NC(=O)[C@H](CCCCN)NC(=O)[C@H](CC(C)C)NC(=O)[C@@H](Cc2ccccc2)NC(=O)[C@H](CCCCN)NC1=O)[C@@H](C)O (some centres undefined)	0.2 µg/mL		
CCC(C)CCCCC(=O)N[C@@H](CCNC=O)C(=O)N[C@H](C(=O)N[C@@H](CCNC=O)C(=O)N[C@H]1CCNC(=O)[C@H]([C@@H](C)O)NC(=O)[C@H](CCNC=O)NC(=O)[C@H](CCNC=O)NC(=O)[C@H](CC(C)C)NC(=O)[C@@H](Cc2ccccc2)NC(=O)[C@H](CCN)NC1=O)[C@@H](C)O (some centres undefined)		42 (≈ 31.9 µM)	
COLISTIN	0.8 µg/mL		
